The text below walks through data of patent US10512656B2, “Compositions and methods for the treatment of lysosomal storage disorders and disorders characterized by lysosomal dysfunction” (Baylor College of Medicine, priority 2016, dated 2019).

One data set has as its system MITF. The data set can be described thus: MITF nuclear translocation in HeLa cells. It counts as cell-based, human. As to conditions: HeLa cells transfected with MITF-3×Flag. The source says:
FIG. 23. Pharmacological inhibition of AKT induces nuclear translocation of TFE3 and MITF. HeLa cells were transiently transfected with TFE3-3×Flag (a) and MITF-3×Flag (b) and analyzed by confocal microscopy. Scale bar is 10 μm.

For data set [1] the following is noted: cited from earlier work.
The subject of the next data set is HeLa cells. The data set can be described thus: Autophagic flux in HeLa cells (LAMP1, p62, LC3 markers). The class given is cell-based, human. As to conditions: time course. The method, then: FIG. 14. Akt phosphorylates TFEB at Ser467. […] Dashed boxes (upper row) show the location of the higher power inserts (lower row). (b) Subcellular fractionation of HeLa/TFEB cells incubated with the same kinase inhibitors. (c) Multi-alignment of TFEB amino-acid sequences from the following species: Ac, Anolis carolensis; Bt, Bos taurus; Dr, Danio rerio; Fc, Felix catus; Gg, gallus gallus; Hs, Homo sapiens; La, Loxodonta africana; Mm, Mus musculus; Rn, Rattus Norvegicus; Sh, Sarcophilus harrisii; Sp, Strongylocentrotus purpuratus; XI, Xenopus laevis. A consensus logo of Akt phosphorylation sites (generated at weblogo.berkeley.edu/logo.cgi) is aligned with TFEB sequences. Position 467 refers to the human protein sequence. (d) Subcellular localization of TFEB and TFEB(S467A). (e) Expression analysis of lysosomal and autophagy genes in HeLa cells transfected with TFEB or TFEB(S467A). […]
Brain tissue and cultured cells were collected and lysed in RIPA buffer (50 mM Tris-HCl, ph 7.4, 1% NP40, 0.5% Na-deoxycholate, 0.1% SDS, 150 mM NaCl, 2 mM EDTA and 50 mM NaF) including a cocktail of protease (Roche) and phosphatase (SIGMA) inhibitors. Protein concentrations were measured with the bicinchoninic acid protein assay kit (Pierce, Rockford, Ill.), using bovine serum albumin as standard. […] Western blot images were acquired by LAS 4000 (GE Healthcare) and quantified using ImageJ. […]

In another data set the test system is Cln3^Δex7-8 and WT mice. As to the kind of experiment: Auditory brainstem response (ABR) measurements. It counts as in vivo, mouse. As to conditions: 10-month-old mice, both genotypes, vs untreated age-matched controls. The method, then:
ABRs were measured as previously described^69. Briefly, 10-month-old mice (n=4-6 per genotype/treatment group) were anaesthetized using an intraperitoneal injection of ketamine (100 mg/kg) and xylazine (10 mg/kg) and then immobilized in a head holder. Normal body temperature was maintained throughout the procedure by placing the mice on a heating pad. Pure tone stimuli from 4 to 48 kHz were generated using Tucker-Davis Technologies System 3 digital signal processing hardware and software (Tucker-Davis Technologies, Alachua, Fla., USA), and the intensity of the tone stimuli was calibrated using a type 4,938 ¼″ pressure-field calibration microphone (Bruel and Kjar, Nrum, Denmark). Response signals were recorded with subcutaneous needle electrodes inserted at the vertex of the scalp, the postauricular region and the back leg (ground)^69. Auditory thresholds were determined by decreasing the sound intensity of each stimulus from 90 to 10 dB in 5 dB steps, until the lowest sound intensity with reproducible and recognizable waves in the response was reached. Mean hearing thresholds±s.d. (dB SPL) were plotted as a function of stimulus frequency (kHz). Statistical analysis consisted of one-way analyses of variance to reveal overall trends accompanied by two-tailed Student's t-tests at individual frequencies to evaluate frequency-specific effects. […]

For a further data set, the system named is Cln3^Δex7-8 mice. As to the kind of experiment: Wet brain weight. As to conditions: 12-month-old Cln3^Δex7-8 mice, trehalose treatment; untreated 0.355±0.024 g, WT 0.516±0.021 g. The class given is in vivo, mouse. The method, then:
Cln3^Δex7-8 mice (stock no. 004685; Cln3^tm1.1Mem/J; CD-1 background)^32 were obtained from the Jackson Laboratory. Control (CD-1) and Cln3^Δex7-8 mice were housed 3-4 per cage in a room with a 12-h light/12-h dark cycle. Food and water were provided ad libitum. All mice used in this study were analyzed at 8 and 12 months of age and were littermates produced by crossing heterozygous Cln3^Δex7-8 mice. Only males were used for this analysis. Investigators were blinded when analyzing the data, and no randomization was necessary. No data were excluded from this study.
Trehalose (Swanson) was dissolved in drinking water to a final concentration of 2% and changed twice a week. Trehalose-containing water was given to Cln3^Δex7-8 and WT mice by spontaneous oral administration starting at 21 days of age and continuing until the day the mice died naturally (life span assessment) or were sacrificed for other studies.

Another data set has as its system lysosomal genes. The data set can be described thus: Microarray expression analysis (gene ontology, GSEA) of fibroblasts. The class given is cell-based, human. The method, then:
Total RNA from control and JNCL fibroblasts with and without trehalose treatment (100 mM, 4 days) was used to prepare complementary DNA for hybridization to the Illumina Human HT-12 V4.0 array platform. Experiments were performed in triplicate. Expression analysis was performed at the Microarray Core and Cell and Regulatory Biology, University of Texas, Houston, Tex., USA. A […] was used as a threshold for significance for assessing differential gene expression. GSEA was performed as previously described^10,11. The cumulative distribution function was constructed by performing 1,000 random gene set membership assignments. A nominal P<0.01 and an FDR<10% were used as thresholds for significance of the ES. Gene ontology analysis was performed with the web tool DAVID (https://david.ncifcrf.gov/) using default parameters. Pathway co-expression analyses were performed as previously described^8,9, and Cytoscape was used to represent graphically the expression correlation data.

On to `Cl.NC1(c2ccc(-c3nc4ccn5c(=O)[nH]nc5c4cc3-c3ccccc3)cc2)CCC1` [MK2206, 8-[4-(1-aminocyclobutyl)phenyl]-9-phenyl-1,2,4-triazolo[3,4-f][1,6]naphthyridin-3(2H)-one], for which the MITF nuclear translocation entry with MITF is “promoted nuclear translocation of these two factors”.

With `OC[C@H]1O[C@H](O[C@H]2O[C@H](CO)[C@@H](O)[C@H](O)[C@H]2O)[C@H](O)[C@@H](O)[C@@H]1O` [trehalose, a-D-glucopyranosyl a-D-glucopyranoside], the “oral amount that may cause diarrhea and bloating” value in data set [1] (oral) is reported as 40-50 grams per day. Moreover, in data set [1] (orally and intravenously, doses substantially higher than the intended therapeutic dose), the safety and toxicity entry is reported as “found to be safe”. Also, the autophagic flux entry in the data set on HeLa cells was “increasing autophagic flux”. In the data set with Cln3^Δex7-8 and WT mice, the ABR thresholds result is listed as “lower ABR thresholds”. The wet brain weight with Cln3^Δex7-8 mice came to 0.473 ± 0.028 g. Further, in the data set on lysosomal genes (control fibroblasts, P<0.0001), the “GSEA enrichment score, TFEB direct targets with a known role in lysosomal metabolism” value was determined as 0.82 and the “GSEA enrichment score, lysosomal genes” value worked out at 0.67. In the data set with lysosomal genes (genes with at least twofold change, JNCL and control fibroblasts, trehalose 100 mM 4 days), the “gene ontology fold enrichment of lysosomal metabolism genes” value is greater than 5.
